Patent publication US6737383B1, “Herbicidal oxadiazolidines” (priority 1999, dated 2004)

Tests used:
bedstraw = assay: Test B pre/postemergence bedstraw; assay type: in vivo, Galium aparine
How it was run: (§1)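 Test chemicals in a non-phytotoxic solvent mixture with surfactant were sprayed preemergence onto planted seeds and postemergence onto plants 2 to 18 cm tall (1- to 4-leaf stage). After twelve to sixteen days in a greenhouse, injury was visually rated against untreated controls from 0 (no effect) to 10 (complete control).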

blackgrass = assay: Test B pre/postemergence blackgrass; assay type: in vivo, Alopecurus myosuroides
How it was run: as §1

surinam grass = assay: Test B pre/postemergence surinam grass; assay type: in vivo, Brachiaria decumbens
How it was run: as §1

cocklebur = assay: Test B pre/postemergence cocklebur; assay type: in vivo, Xanthium strumarium; settings: for Cocklebur plant response rating: Postemergence; for Plant response rating, Cocklebur: Preemergence
How it was run: as §1

giant foxtail = assay: Test B pre/postemergence giant foxtail; assay type: in vivo, Setaria faberii
How it was run: as §1

morningglory = assay: Test B pre/postemergence morningglory; assay type: in vivo, Ipomoea hederacea
How it was run: as §1

pigweed = assay: Test B pre/postemergence pigweed; assay type: in vivo, Amaranthus retroflexus
How it was run: as §1

rape = assay: Test B pre/postemergence rape; assay type: in vivo, Brassica napus
How it was run: as §1

soybean = assay: Test B pre/postemergence soybean; assay type: in vivo, Glycine max
How it was run: as §1

velvetleaf = assay: Test B pre/postemergence velvetleaf; assay type: in vivo, Abutilon theophrasti
How it was run: as §1

wheat = assay: Test B pre/postemergence wheat; assay type: in vivo, Triticum aestivum
How it was run: as §1

wild oat = assay: Test B pre/postemergence wild oat; assay type: in vivo, Avena fatua
How it was run: as §1

purple nutsedge = assay: Test B pre/postemergence purple nutsedge; assay type: in vivo, Cyperus rotundus
How it was run: as §1

smallflower flatsedge = assay: Test B flood test smallflower flatsedge; assay type: in vivo, Cyperus difformis
How it was run: (§2)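 Each value is a visual injury score relative to controls, with 10 meaning complete control and 0 no effect. Evaluation took place twelve to sixteen days after the 2-leaf-stage plants were treated and kept in the greenhouse.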

duck salad = assay: Test B flood test duck salad; assay type: in vivo, Heteranthera limosa
How it was run: as §2

bamyardgrass = assay: Test B flood test barnyardgrass; assay type: in vivo, Echinochloa crus-galli
How it was run: as §2

[1] = Postemergence, Rate 62 g/ha, scale 0 to 10, 0 is no effect, 10 is complete control
[2] = Preemergence, Rate 62 g/ha, scale 0 to 10, 0 is no effect, 10 is complete control
[3] = Preemergence, Rate 125 g/ha, scale 0 to 10 (0 no effect, 10 complete control)
[4] = Preemergence, Rate 500 g/ha, scale 0 (no effect) to 10 (complete control)
[5] = Postemergence, Rate 250 g/ha, scale 0 to 10, 0 no effect, 10 complete control
[6] = Preemergence, Rate 250 g/ha, scale of 0 to 10 where 0 is no effect and 10 is complete control
[7] = Rate 125 g/ha, Postemergence, scale 0 to 10, 0 no effect, 10 complete control
[8] = Rate 500 g/ha, Postemergence, 0 to 10 scale (0 no effect, 10 complete control)
[9] = Rate 62 g/ha, scale 0 to 10, 0 is no effect, 10 is complete control
[10] = Rate 125 g/ha, Postemergence section (flood test species), scale 0 to 10, 0 no effect, 10 complete control
[11] = Rate 250 g/ha, headed Pre-emergence (flood test species), scale 0 to 10 (0 no effect, 10 complete control)
[12] = Rate 500 g/ha, headed Pre-emergence (flood test species), scale 0 to 10 (0 no effect, 10 complete control)
[13] = Rate 2000 g/ha, Pre-emergence (as headed), scale 0 to 10
[14] = flood test, listed under Postemergence, Rate 250 g/ha, scale 0 to 10, 0 no effect, 10 complete control
[15] = Rate 500 g/ha, Postemergence section of Table B, 0 to 10 scale (0 no effect, 10 complete control)
[16] = Rate 1000 g/ha, Pre-emergence (as headed), scale 0 to 10

Cc1ccccc1-n1c(=O)on(C(=O)N(c2ccccc2)C(C)C)c1=O [Compound 36]
3: Blackgrass plant response rating (blackgrass; [7]) | Giant foxtail plant response rating (giant foxtail; [5]) | Giant foxtail plant response rating (giant foxtail; [7]) | Giant foxtail plant response rating (giant foxtail; [8]) | Rape plant response rating (rape; [4])
7: Blackgrass plant response rating (blackgrass; [4]) | Redroot pigweed plant response rating (pigweed; [5]) | Redroot pigweed plant response rating (pigweed; [4]) | Redroot pigweed plant response rating (pigweed; [8]) | Wild oats plant response rating (wild oat; [4])
4: Blackgrass plant response rating (blackgrass; [5]) | Plant response rating, Blackgrass (blackgrass; [2]) | B. signalgrass plant response rating (surinam grass; [8]) | Cocklebur plant response rating (cocklebur; Rate 500 g/ha, 0 to 10 scale (0 no effect, 10 complete control)) | Morningglory plant response rating (morningglory; [1])
6: Plant response rating, Blackgrass (blackgrass; [6]) | Blackgrass plant response rating (blackgrass; [8]) | Plant response rating, Redroot pigweed (pigweed; [6]) | Plant response rating, Wild oats (wild oat; [6])
8: Plant response rating, B. signalgrass (surinam grass; [3]) | Plant response rating, B. signalgrass (surinam grass; [6]) | B. signalgrass plant response rating (surinam grass; [4])
0: Bedstraw plant response rating (bedstraw; [1]) | Plant response rating, Bedstraw (bedstraw; [2]) | Plant response rating, Bedstraw (bedstraw; [3]) | Bedstraw plant response rating (bedstraw; [4]) | Blackgrass plant response rating (blackgrass; [1]) | B. signalgrass plant response rating (surinam grass; [1]) | B. signalgrass plant response rating (surinam grass; [5]) | B. signalgrass plant response rating (surinam grass; [7]) | Cocklebur plant response rating (cocklebur; [9]) | Cocklebur plant response rating (cocklebur; Rate 250 g/ha, scale 0 to 10, 0 no effect, 10 complete control) | Plant response rating, Cocklebur (cocklebur; [9]) | Plant response rating, Cocklebur (cocklebur; Rate 125 g/ha, scale 0 to 10 (0 no effect, 10 complete control)) | Plant response rating, Cocklebur (cocklebur; Rate 250 g/ha, scale of 0 to 10 where 0 is no effect and 10 is complete control) | Cocklebur plant response rating (cocklebur; Rate 125 g/ha, scale 0 to 10, 0 no effect, 10 complete control) | Giant foxtail plant response rating (giant foxtail; [1]) | Plant response rating, Morningglory (morningglory; [2]) | Plant response rating, Morningglory (morningglory; [3]) | Plant response rating, Morningglory (morningglory; [6]) | Morningglory plant response rating (morningglory; [4]) | Plant response rating, Redroot pigweed (pigweed; [2]) | Plant response rating, Redroot pigweed (pigweed; [3]) | Rape plant response rating (rape; [1]) | Rape plant response rating (rape; [5]) | Plant response rating, Rape (rape; [2]) | Plant response rating, Rape (rape; [3]) | Plant response rating, Rape (rape; [6]) | Rape plant response rating (rape; [7]) | Rape plant response rating (rape; [8]) | Plant response rating, Soybean (soybean; [2]) | Plant response rating, Soybean (soybean; [3]) | Plant response rating, Soybean (soybean; [6]) | Soybean plant response rating (soybean; [4]) | Velvetleaf plant response rating (velvetleaf; [1]) | Velvetleaf plant response rating (velvetleaf; [5]) | Plant response rating, Velvetleaf (velvetleaf; [2]) | Plant response rating, Velvetleaf (velvetleaf; [3]) | Plant response rating, Velvetleaf (velvetleaf; [6]) | Velvetleaf plant response rating (velvetleaf; [4]) | Velvetleaf plant response rating (velvetleaf; [7]) | Wheat plant response rating (wheat; [1]) | Wheat plant response rating (wheat; [5]) | Plant response rating, Wheat (wheat; [2]) | Plant response rating, Wheat (wheat; [3]) | Plant response rating, Wheat (wheat; [6]) | Wheat plant response rating (wheat; [4]) | Wheat plant response rating (wheat; [7]) | Wild oats plant response rating (wild oat; [1]) | Wild oats plant response rating (wild oat; [5]) | Wild oats plant response rating (wild oat; [7]) | Nutsedge plant response rating (purple nutsedge; [1]) | Nutsedge plant response rating (purple nutsedge; [5]) | Plant response rating, Nutsedge (purple nutsedge; [2]) | Plant response rating, Nutsedge (purple nutsedge; [3]) | Plant response rating, Nutsedge (purple nutsedge; [6]) | Nutsedge plant response rating (purple nutsedge; [4]) | Nutsedge plant response rating (purple nutsedge; [7]) | Nutsedge plant response rating (purple nutsedge; [8]) | S. Flatsedge plant response rating (smallflower flatsedge; [1]) | S. Flatsedge plant response rating (smallflower flatsedge; Pre-emergence, Rate 1000 g/ha, scale 0 to 10 (0 no effect, 10 complete control)) | S. Flatsedge plant response rating (smallflower flatsedge; [10]) | S. Flatsedge plant response rating (smallflower flatsedge; [11]) | Plant response rating, S. Flatsedge (smallflower flatsedge; [12]) | S. Flatsedge plant response rating (smallflower flatsedge; [13]) | S. Flatsedge plant response rating (smallflower flatsedge; [14]) | Ducksalad plant response rating (duck salad; [1]) | Ducksalad plant response rating (duck salad; [10]) | Ducksalad plant response rating (duck salad; [11]) | Ducksalad plant response rating (duck salad; [15]) | Plant response rating, Ducksalad (duck salad; [12]) | Ducksalad plant response rating (duck salad; [16]) | Ducksalad plant response rating (duck salad; [13]) | Ducksalad plant response rating (duck salad; [14]) | Barnyardgrass plant response rating (bamyardgrass; [1]) | Barnyardgrass plant response rating (bamyardgrass; [10]) | Barnyardgrass plant response rating (bamyardgrass; [11]) | Plant response rating, Barnyardgrass (bamyardgrass; [12]) | Barnyardgrass plant response rating (bamyardgrass; [16]) | Barnyardgrass plant response rating (bamyardgrass; Rate 2000 g/ha, Pre-emergence (as headed), scale 0 to 10, 0 no effect, 10 complete control)
10: Plant response rating, Giant foxtail (giant foxtail; [2]) | Plant response rating, Giant foxtail (giant foxtail; [3]) | Plant response rating, Giant foxtail (giant foxtail; [6]) | Giant foxtail plant response rating (giant foxtail; [4])
9: Morningglory plant response rating (morningglory; [5]) | Morningglory plant response rating (morningglory; [7]) | Morningglory plant response rating (morningglory; [8])
2: Redroot pigweed plant response rating (pigweed; [1]) | Plant response rating, Wild oats (wild oat; [3]) | Barnyardgrass plant response rating (bamyardgrass; [14])
5: Plant response rating, Blackgrass (blackgrass; [3]) | Plant response rating, B. signalgrass (surinam grass; [2]) | Redroot pigweed plant response rating (pigweed; [7]) | Soybean plant response rating (soybean; [1]) | Soybean plant response rating (soybean; [5]) | Soybean plant response rating (soybean; [7]) | Barnyardgrass plant response rating (bamyardgrass; [15])
